In ChEMBL document CHEMBL6134817, “Novel gut-restricted bivalent agonists targeting mucosal 5-HT4R: Design, synthesis, and biological evaluation” (Eur J Med Chem, 2025):
Activity calls are given as the source filed them. The rule behind the calls is not given here.

What was measured:
[1] = target: T1, 5-hydroxytryptamine receptor 4 (Homo sapiens, UniProt Q13639); test: Agonist activity at full-length human 5-HT4R stably expressed in HEK293 cells assessed as increase in intracellular cAMP level incubated for 30 mins under dark condition by reporter gene assay relative to control; format: functional, cell-based; conditions: filed as agonist
[2] = target: T1, 5-hydroxytryptamine receptor 4; test: Displacement of [3H]-GR113808 from full-length human 5-HT4R stably expressed in HEK293 cell membrane by MicroBeta2 Reader analysis; format: cell membranes
[3] = target: T1, 5-hydroxytryptamine receptor 4; test: Agonist activity at full-length human 5-HT4R stably expressed in HEK293 cells assessed as increase in intracellular cAMP level incubated for 30 mins under dark condition by reporter gene assay; format: functional, cell-based
[4] = Permeability of compound assessed as compound recovery at 10 uM incubated for 4 hrs by PAMPA; format: ADME; conditions: read-out: Drug recovery
[5] = target: T2, Voltage-gated inwardly rectifying potassium channel KCNH2 (Homo sapiens, UniProt Q12809); test: Inhibition of hERG; format: toxicity
[6] = Apparent permeability coefficient of compound at 10 uM incubated for 4 hrs by PAMPA; format: ADME
Mus musculus [7] = test: Anti-constipation effect in mouse assessed as increase in fecal water content at 3 to 10 mg/kg, po measured after 1 hr; format: functional, organism-based; conditions: dose 3-10 mg/kg
Mus musculus [8] = test: Anti-constipation effect in mouse assessed as decrease in bead expulsion time at 3 to 15 mg/kg, po pretreated with compound 1 hr prior to glass bead insertion into distal colon measured after regaining conscious; format: functional, organism-based; conditions: dose 3-15 mg/kg
[9] = Stability in mouse plasma assessed as half life measured up to 120 mins by LC-MS/MS analysis; format: ADME, cell-free
[10] = Metabolic stability in rat liver microsomes assessed as intrinsic clearance measured per mg protein at 10 uM measured up to 60 mins in presence of NADPH by LC-MS/MS analysis; format: ADME, Microsome; conditions: read-out: CLH
Mus musculus [11] = test: Induction of whole-gut transit in mouse assessed as decrease in time for carmine red dye excretion administered orally via gavage measured for every 5 mins; format: functional, organism-based; conditions: dose 3-15 mg/kg, route po
Mus musculus [12] = test: Anti-constipation effect in mouse assessed as increase in fecal output at 3 to 10 mg/kg, po measured after 1 hr; format: functional, organism-based; conditions: dose 3-10 mg/kg
[13] = Stability in SIF at pH 6.8 assessed as half life by LC-MS/MS analysis; format: physicochemical
[14] = Metabolic stability in human liver microsomes assessed as half life at 10 uM measured up to 60 mins in presence of NADPH by LC-MS/MS analysis; format: ADME, Microsome
[15] = target: T3, 5-hydroxytryptamine receptor 1A (Homo sapiens, UniProt P08908); test: Inhibition of 5-HT1AR (unknown origin)
T3 sequence (P08908 whole entry): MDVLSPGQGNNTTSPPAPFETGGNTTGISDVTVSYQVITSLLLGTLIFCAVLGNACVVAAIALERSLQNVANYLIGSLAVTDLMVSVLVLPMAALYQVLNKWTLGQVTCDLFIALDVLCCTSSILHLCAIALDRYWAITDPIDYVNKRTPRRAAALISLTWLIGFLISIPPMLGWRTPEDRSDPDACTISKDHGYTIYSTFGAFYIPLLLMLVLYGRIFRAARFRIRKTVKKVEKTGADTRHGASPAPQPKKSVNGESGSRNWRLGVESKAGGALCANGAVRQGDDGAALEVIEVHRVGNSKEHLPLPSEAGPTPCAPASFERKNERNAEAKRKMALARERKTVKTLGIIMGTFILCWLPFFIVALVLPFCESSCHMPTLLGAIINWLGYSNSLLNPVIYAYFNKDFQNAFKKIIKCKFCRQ

[16] = Stability in SGF at pH 1.5 assessed as half life by LC-MS/MS analysis; format: physicochemical
[17] = Metabolic stability in mouse liver microsomes assessed as intrinsic clearance measured per mg protein at 10 uM measured up to 60 mins in presence of NADPH by LC-MS/MS analysis; format: ADME, Microsome; conditions: read-out: CLH
[18] = Metabolic stability in human liver microsomes assessed as intrinsic clearance measured per mg protein at 10 uM measured up to 60 mins in presence of NADPH by LC-MS/MS analysis; format: ADME, Microsome; conditions: read-out: CLH
[19] = Metabolic stability in mouse liver microsomes assessed as half life at 10 uM measured up to 60 mins in presence of NADPH by LC-MS/MS analysis; format: ADME, Microsome
[20] = Drug excretion in fasted male Sprague-Dawley rat at 5 mg/kg, po measured for 24 hrs by LC-MS/MS analysis; format: ADME, organism-based; conditions: in vivo, read-out: Drug excretion
[21] = target: 5-hydroxytryptamine receptor 2A (Homo sapiens, UniProt P28223); test: Inhibition of 5-HT2AR (unknown origin)
[22] = Cmax in fasted male C57BL/6J mouse at 10 mg/kg, po measured after 1 hr by LC-MS/MS analysis; format: ADME, organism-based; conditions: in vivo
[23] = target: T1, 5-hydroxytryptamine receptor 4; test: Inhibition of 5-HT4R (unknown origin)
[24] = target: Serotonin 3 (5-HT3) receptor; test: Inhibition of 5-HT3R (unknown origin); format: protein-complex assay, Homo sapiens
[25] = Metabolic stability in rat liver microsomes assessed as half life at 10 uM measured up to 60 mins in presence of NADPH by LC-MS/MS analysis; format: ADME, Microsome
[26] = target: 5-hydroxytryptamine receptor 6 (Homo sapiens, UniProt P50406); test: Inhibition of 5-HT6R (unknown origin)
[27] = target: 5-hydroxytryptamine receptor 7 (Homo sapiens, UniProt P34969); test: Inhibition of 5-HT7R (unknown origin)
[28] = target: 5-hydroxytryptamine receptor 5A (Homo sapiens, UniProt P47898); test: Inhibition of 5-HT5R (unknown origin)
[29] = target: 5-hydroxytryptamine receptor 1B (Homo sapiens, UniProt P28222); test: Inhibition of 5-HT1BR (unknown origin)
[30] = target: T2, Voltage-gated inwardly rectifying potassium channel KCNH2; test: Inhibition of hERG stably expressed in HEK293 cells by patch-clamp method; format: toxicity, cell-based
[31] = target: T4, 5-hydroxytryptamine receptor 2C (Homo sapiens, UniProt P28335); test: Inhibition of 5-HT2CR (unknown origin)
T4 sequence (P28335 whole entry): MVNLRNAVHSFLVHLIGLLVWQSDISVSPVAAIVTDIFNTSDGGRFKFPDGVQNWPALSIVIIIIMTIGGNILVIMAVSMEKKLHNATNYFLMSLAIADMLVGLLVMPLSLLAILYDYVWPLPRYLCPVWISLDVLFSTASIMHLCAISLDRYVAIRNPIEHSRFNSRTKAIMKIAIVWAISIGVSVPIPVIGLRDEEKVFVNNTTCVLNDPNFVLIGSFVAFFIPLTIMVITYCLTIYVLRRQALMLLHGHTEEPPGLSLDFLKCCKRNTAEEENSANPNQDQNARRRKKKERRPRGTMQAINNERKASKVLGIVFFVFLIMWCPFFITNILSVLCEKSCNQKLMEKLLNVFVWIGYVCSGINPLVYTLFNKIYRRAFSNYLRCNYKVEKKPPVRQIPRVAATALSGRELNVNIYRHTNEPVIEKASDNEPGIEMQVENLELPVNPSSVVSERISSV

[32] = Drug excretion in feces of fasted male Sprague-Dawley rat at 5 mg/kg, po measured for 24 hrs by LC-MS/MS analysis; format: ADME, organism-based; conditions: faeces, read-out: Drug excretion
[33] = target: 5-hydroxytryptamine receptor 2B (Homo sapiens, UniProt P41595); test: Inhibition of 5-HT2BR (unknown origin)
5-hydroxytryptamine receptor 2B, sequence (P41595 whole entry): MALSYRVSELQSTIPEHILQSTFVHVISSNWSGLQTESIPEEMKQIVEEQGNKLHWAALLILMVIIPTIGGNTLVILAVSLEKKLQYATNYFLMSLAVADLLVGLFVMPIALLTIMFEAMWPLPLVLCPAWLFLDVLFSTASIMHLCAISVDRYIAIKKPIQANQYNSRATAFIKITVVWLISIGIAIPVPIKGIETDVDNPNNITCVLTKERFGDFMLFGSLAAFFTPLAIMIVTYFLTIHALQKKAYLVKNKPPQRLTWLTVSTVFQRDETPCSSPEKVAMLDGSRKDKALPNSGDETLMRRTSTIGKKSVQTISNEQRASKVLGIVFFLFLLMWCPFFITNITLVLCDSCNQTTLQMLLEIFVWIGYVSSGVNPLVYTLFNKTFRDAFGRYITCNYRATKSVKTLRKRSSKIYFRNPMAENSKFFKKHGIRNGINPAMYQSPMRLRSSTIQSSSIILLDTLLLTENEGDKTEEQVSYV

T1 sequence (Q13639 whole entry): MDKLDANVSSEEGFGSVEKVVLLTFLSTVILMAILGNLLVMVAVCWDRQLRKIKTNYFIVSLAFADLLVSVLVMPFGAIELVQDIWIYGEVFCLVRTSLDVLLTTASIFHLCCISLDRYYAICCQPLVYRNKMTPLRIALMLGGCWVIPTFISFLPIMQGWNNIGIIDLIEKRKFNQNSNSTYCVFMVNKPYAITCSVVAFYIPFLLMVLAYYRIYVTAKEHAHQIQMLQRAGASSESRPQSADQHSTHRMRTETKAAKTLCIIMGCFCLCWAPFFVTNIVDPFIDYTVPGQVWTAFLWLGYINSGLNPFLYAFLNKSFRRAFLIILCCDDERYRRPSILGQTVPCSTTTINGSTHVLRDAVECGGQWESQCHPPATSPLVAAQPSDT
T2 sequence (Q12809 whole entry): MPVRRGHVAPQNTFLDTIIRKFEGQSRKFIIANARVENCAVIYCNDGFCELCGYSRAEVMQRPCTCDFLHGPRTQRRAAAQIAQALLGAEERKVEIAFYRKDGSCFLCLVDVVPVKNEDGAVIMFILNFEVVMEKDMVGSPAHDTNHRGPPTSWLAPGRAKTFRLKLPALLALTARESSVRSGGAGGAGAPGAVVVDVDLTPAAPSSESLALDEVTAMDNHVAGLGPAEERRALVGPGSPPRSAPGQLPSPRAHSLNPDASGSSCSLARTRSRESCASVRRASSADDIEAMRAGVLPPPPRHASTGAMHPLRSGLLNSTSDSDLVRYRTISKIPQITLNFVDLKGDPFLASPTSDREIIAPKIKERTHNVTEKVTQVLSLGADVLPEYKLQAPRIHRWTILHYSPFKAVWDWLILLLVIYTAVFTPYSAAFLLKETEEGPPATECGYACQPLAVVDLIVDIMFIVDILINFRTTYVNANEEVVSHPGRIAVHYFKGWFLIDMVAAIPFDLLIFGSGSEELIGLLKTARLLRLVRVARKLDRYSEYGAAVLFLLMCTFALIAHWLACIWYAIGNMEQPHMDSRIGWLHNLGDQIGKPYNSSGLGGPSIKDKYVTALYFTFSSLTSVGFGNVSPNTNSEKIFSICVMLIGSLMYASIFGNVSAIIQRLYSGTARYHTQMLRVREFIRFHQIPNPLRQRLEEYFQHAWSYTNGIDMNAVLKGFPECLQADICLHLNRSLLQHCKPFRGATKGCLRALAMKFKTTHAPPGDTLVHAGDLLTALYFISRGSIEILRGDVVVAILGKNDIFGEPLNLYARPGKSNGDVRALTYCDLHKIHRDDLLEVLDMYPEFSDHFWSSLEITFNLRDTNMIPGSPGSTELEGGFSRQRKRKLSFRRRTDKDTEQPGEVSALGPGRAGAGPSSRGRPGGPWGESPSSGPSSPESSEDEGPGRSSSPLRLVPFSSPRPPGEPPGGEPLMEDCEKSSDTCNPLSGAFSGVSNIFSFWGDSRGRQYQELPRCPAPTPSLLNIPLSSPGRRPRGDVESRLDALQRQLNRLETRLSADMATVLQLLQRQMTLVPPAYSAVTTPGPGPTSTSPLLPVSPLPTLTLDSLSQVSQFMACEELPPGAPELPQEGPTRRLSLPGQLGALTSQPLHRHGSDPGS
5-hydroxytryptamine receptor 1B, sequence (P28222 whole entry): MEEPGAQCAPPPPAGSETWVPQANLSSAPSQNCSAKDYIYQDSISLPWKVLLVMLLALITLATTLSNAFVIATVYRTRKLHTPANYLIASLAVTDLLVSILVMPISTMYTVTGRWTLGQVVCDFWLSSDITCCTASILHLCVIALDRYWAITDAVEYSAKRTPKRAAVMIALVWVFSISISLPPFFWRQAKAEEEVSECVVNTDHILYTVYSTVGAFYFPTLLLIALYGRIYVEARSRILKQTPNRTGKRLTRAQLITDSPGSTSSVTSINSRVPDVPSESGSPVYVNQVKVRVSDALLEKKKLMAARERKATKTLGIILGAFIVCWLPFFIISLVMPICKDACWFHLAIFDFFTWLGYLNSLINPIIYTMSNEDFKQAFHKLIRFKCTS
5-hydroxytryptamine receptor 7, sequence (P34969 whole entry): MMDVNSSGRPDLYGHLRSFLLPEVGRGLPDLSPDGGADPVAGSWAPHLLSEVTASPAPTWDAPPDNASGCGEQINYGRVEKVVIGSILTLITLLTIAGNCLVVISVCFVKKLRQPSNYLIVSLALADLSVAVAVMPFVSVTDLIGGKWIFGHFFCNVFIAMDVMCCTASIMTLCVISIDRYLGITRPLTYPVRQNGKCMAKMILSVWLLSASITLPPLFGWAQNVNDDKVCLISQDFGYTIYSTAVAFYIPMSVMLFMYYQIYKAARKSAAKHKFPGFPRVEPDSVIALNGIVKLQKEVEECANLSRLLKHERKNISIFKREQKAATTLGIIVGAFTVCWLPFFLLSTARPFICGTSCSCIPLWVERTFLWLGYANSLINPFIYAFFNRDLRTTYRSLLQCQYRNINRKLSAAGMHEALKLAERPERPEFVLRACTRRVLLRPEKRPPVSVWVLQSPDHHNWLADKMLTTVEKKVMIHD
5-hydroxytryptamine receptor 6, sequence (P50406 whole entry): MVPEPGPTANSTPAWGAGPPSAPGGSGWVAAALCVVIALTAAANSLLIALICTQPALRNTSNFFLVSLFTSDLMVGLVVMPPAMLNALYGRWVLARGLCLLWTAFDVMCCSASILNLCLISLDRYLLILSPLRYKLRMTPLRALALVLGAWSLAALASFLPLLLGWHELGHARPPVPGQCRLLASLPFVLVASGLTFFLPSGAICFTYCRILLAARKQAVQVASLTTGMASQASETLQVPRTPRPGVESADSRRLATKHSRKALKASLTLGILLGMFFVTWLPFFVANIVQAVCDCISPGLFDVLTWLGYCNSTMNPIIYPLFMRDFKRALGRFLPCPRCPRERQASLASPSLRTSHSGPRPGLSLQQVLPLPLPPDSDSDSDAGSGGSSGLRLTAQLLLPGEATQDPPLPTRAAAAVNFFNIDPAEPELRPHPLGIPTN
5-hydroxytryptamine receptor 2A, sequence (P28223 whole entry): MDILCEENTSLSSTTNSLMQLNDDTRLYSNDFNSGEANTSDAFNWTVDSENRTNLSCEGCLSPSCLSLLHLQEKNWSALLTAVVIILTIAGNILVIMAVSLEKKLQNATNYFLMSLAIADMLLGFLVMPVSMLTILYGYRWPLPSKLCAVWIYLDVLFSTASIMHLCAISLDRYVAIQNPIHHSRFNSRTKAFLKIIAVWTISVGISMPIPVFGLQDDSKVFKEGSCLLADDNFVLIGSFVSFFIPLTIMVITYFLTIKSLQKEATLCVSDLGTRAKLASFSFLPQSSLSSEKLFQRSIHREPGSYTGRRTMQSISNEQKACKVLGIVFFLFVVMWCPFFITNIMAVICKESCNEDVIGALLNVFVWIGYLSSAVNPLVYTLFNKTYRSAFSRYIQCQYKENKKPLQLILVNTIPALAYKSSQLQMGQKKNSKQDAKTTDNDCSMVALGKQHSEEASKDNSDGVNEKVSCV
5-hydroxytryptamine receptor 5A, sequence (P47898 whole entry): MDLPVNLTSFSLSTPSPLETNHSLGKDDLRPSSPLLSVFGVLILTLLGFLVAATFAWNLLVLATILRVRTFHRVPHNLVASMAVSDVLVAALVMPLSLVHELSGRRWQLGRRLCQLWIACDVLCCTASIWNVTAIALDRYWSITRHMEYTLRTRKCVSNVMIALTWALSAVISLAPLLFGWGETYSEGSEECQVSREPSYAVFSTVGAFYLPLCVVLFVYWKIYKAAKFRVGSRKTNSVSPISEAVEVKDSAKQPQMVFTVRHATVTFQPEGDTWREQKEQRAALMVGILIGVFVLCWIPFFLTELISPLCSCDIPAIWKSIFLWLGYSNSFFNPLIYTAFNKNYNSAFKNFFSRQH

## Nc1c(Cl)cc(C(=O)NCC2CCN(CCCCCNC(=O)CCOCCOCCNC(=O)NCCCCNC(=O)NCCOCCOCCC(=O)NCCCCCN3CCC(CNC(=O)c4cc(Cl)c(N)c5c4OCC5)CC3)CC2)c2c1CCO2
[1]
  Efficacy: 113%
[2]
  Ki: 1.49 nM
[3]
  EC50: 0.17 nM

## COCCCN1CCC(NC(=O)c2cc(Cl)c(N)c3c2OCC3)CC1 [PRUCALOPRIDE]
[4]
  recovery at 4 h, 10 µM: 92.4%
[1]
  Efficacy: 110%
[5]
  IC50: 4100 nM
[6]
  Papp at 4 h, 10 µM: < 0.0185 ×10⁻⁶ cm/s

## Nc1c(Cl)cc(C(=O)NC2CCN(CCCC(=O)NCCOCCNC(=O)NCCOCCNC(=O)CCCN3CCC(NC(=O)c4cc(Cl)c(N)c5c4OCC5)CC3)CC2)c2c1CCO2
[1]
  Efficacy: 88.6%
[2]
  Ki: 75 nM
[3]
  EC50: 0.33 nM

## CN(CCOCCNC(=O)NCCOCCN(C)C(=O)CCCN1CCC(NC(=O)c2cc(Cl)c(N)c3c2OCC3)CC1)C(=O)CCCN1CCC(NC(=O)c2cc(Cl)c(N)c3c2OCC3)CC1
[1]
  Efficacy: 95.3%
[2]
  Ki: 98.9 nM
[3]
  EC50: 0.07 nM

## Nc1c(Cl)cc(C(=O)NCC2CCN(CCCCCC(=O)NCCOCCOCCNC(=O)NCCCCNC(=O)NCCOCCOCCNC(=O)CCCCCN3CCC(CNC(=O)c4cc(Cl)c(N)c5c4OCC5)CC3)CC2)c2c1CCO2
[4]
  recovery at 4 h, 10 µM: 83.1%
Mus musculus [7]
  Activity: Active; Efficacy Comparable To Prucalopride Succinate At 10 Mg/Kg
Mus musculus [8]
  Activity: Active
[9]
  half-life: 3.06 h
[10]
  microsomal CLint at 10 µM: 5 µL/min/mg
Mus musculus [11]
  Activity: Dose-dependent-effect; Superior To Prucalopride Succinate At 10 Mg/Kg
[1]
  Efficacy: 99.6%
[2]
  Ki: 13.1 nM
Mus musculus [12]
  Activity: Active; Efficacy Comparable To Prucalopride Succinate At 10 Mg/Kg
[13]
  half-life: > 24 h
[14]
  half-life at 10 µM: 0.356 h
[15]
  IC50: > 10000 nM
[16]
  half-life: > 24 h
[17]
  microsomal CLint at 10 µM: 3 µL/min/mg
[18]
  microsomal CLint at 10 µM: 64.8 µL/min/mg
[19]
  half-life at 10 µM: 7.7 h
[20]
  dose excreted at 24 h: ~100%
[3]
  EC50: 0.41 nM
[21]
  IC50: > 1000 nM
[22]
  Cmax: 8.5 ng/mL
[23]
  IC50: 25100 nM
[24]
  IC50: > 10000 nM
[25]
  half-life at 10 µM: 4.62 h
[26]
  IC50: > 1000 nM
[27]
  IC50: > 10000 nM
[28]
  IC50: > 10000 nM
[29]
  IC50: > 10000 nM
[30]
  IC50: > 100000 nM
[31]
  IC50: > 10000 nM
[6]
  Papp at 4 h, 10 µM: 3.1 ×10⁻⁶ cm/s
[32]
  dose excreted at 24 h: ~100%
[33]
  IC50: > 1000 nM

## Nc1c(Cl)cc(C(=O)NC2CCN(CCC(=O)NCCOCCOCCNC(=O)NCCCCNC(=O)NCCOCCOCCNC(=O)CCN3CCC(NC(=O)c4cc(Cl)c(N)c5c4OCC5)CC3)CC2)c2c1CCO2
[1]
  Efficacy: 112%
[2]
  Ki: 197 nM
[3]
  EC50: 6.46 nM

## Nc1c(Cl)cc(C(=O)NC2CCN(CCC(=O)NCCOCCNC(=O)NCCCCNC(=O)NCCOCCNC(=O)CCN3CCC(NC(=O)c4cc(Cl)c(N)c5c4OCC5)CC3)CC2)c2c1CCO2
[1]
  Efficacy: 119%
[3]
  EC50: 3.71 nM

## Nc1c(Cl)cc(C(=O)NC2CCN(CCC(=O)NCCOCCOCCNC(=O)c3ccc(C(=O)NCCOCCOCCNC(=O)CCN4CCC(NC(=O)c5cc(Cl)c(N)c6c5OCC6)CC4)cc3)CC2)c2c1CCO2
[1]
  Efficacy: 110%
[3]
  EC50: 5.67 nM

## Nc1c(Cl)cc(C(=O)NC2CCN(CCC(=O)NCCOCCOCCNC(=O)COCC(=O)NCCOCCOCCNC(=O)CCN3CCC(NC(=O)c4cc(Cl)c(N)c5c4OCC5)CC3)CC2)c2c1CCO2
[1]
  Efficacy: 104%
[3]
  EC50: 4.91 nM

## Nc1c(Cl)cc(C(=O)NCC2CCN(CCC(=O)NCCOCCOCCNC(=O)NCCCCNC(=O)NCCOCCOCCNC(=O)CCN3CCC(CNC(=O)c4cc(Cl)c(N)c5c4OCC5)CC3)CC2)c2c1CCO2
[1]
  Efficacy: 107%
[2]
  Ki: 54.8 nM
[3]
  EC50: 0.4 nM

## Nc1c(Cl)cc(C(=O)NC2CCN(CCNCCOCCOCCNC(=O)N[C@H]3CCCC[C@@H]3NC(=O)NCCOCCOCCNC(=O)CCN3CCC(NC(=O)c4cc(Cl)c(N)c5c4OCC5)CC3)CC2)c2c1CCO2
[1]
  Efficacy: 85.6%
[3]
  EC50: 3.1 nM

## Nc1c(Cl)cc(C(=O)NC2CCN(CCC(=O)NCCOCCOCCNC(=O)N3CCN(C(=O)NCCOCCOCCNC(=O)CCN4CCC(NC(=O)c5cc(Cl)c(N)c6c5OCC6)CC4)CC3)CC2)c2c1CCO2
[1]
  Efficacy: 127%
[3]
  EC50: 7.08 nM

## Nc1c(Cl)cc(C(=O)NC2CCN(CCC(=O)NCCCCCCCCNC(=O)NCCNC(=O)NCCCCCCCCNC(=O)CCN3CCC(NC(=O)c4cc(Cl)c(N)c5c4OCC5)CC3)CC2)c2c1CCO2
[1]
  Efficacy: 125%
[3]
  EC50: 5.88 nM
